Measured values from PubChem BioAssay AID1963952 (Xavier Lab, Infectious Disease and Microbiome Program, …, 2024).
Calls of active or inactive are those of the source. How the calls were made is not given here.

target: Peptidyl-prolyl cis-trans isomerase FKBP1A (Homo sapiens) (UniProt P62942); assay: FKBP12 binders, dose response, biochemical, TR-FRET (AID 1963952); conditions: FKBP12 binding
Sequence (P62942 whole entry, looked up): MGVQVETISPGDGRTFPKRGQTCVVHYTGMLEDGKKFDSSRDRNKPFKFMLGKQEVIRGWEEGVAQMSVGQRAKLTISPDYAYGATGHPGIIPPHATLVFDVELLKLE

| EC50 | outcome | Compound |
| --- | --- | --- |
| 36.8 µM | – | CCC(C)(C)C(=O)C(=O)N1CCCC[C@H]1C(=O)N[C@H](CCc1ccc(OC)cc1)C(=O)N1[C@@H]2CC[C@H]1CC(Nc1nc(NCCc3sc(N)nc3C)nc(NCc3ccnc(CO)c3)n1)C2 (stereo not given in full) |
| 13.3 µM | – | CCC(C)(C)C(=O)C(=O)N1CCCC[C@H]1C(=O)N[C@H](CCc1ccc(OC)cc1)C(=O)N1CC[C@H](Nc2nc(NCCc3sc(N)nc3C)nc(N(C)Cc3nnc4n3CCC4)n2)C1 |
| 17.9 µM | – | CCC(C)(C)C(=O)C(=O)N1CCCC[C@H]1C(=O)N[C@H](CCc1ccc(OC)cc1)C(=O)N1[C@@H]2CC[C@H]1CC(Nc1nc(NCCc3sc(N)nc3C)nc(N(C)Cc3nnc4n3CCC4)n1)C2 (stereo not given in full) |
| 29.5 µM | – | CCC(C)(C)C(=O)C(=O)N1CCCC[C@H]1C(=O)N[C@H](CCc1ccc(OC)cc1)C(=O)N1[C@@H]2CC[C@H]1CC(Nc1nc(NCCc3sc(N)nc3C)nc(N3CCn4ncnc4C3)n1)C2 (stereo not given in full) |
| 18.4 µM | – | CCC(C)(C)C(=O)C(=O)N1CCCC[C@H]1C(=O)N[C@H](CCc1ccc(OC)cc1)C(=O)N1[C@@H]2CC[C@H]1CC(Nc1nc(NCCc3sc(N)nc3C)nc(NCCn3cnc4ccccc43)n1)C2 (stereo not given in full) |
| 35 µM | – | CCC(C)(C)C(=O)C(=O)N1CCCC[C@H]1C(=O)N[C@H](CCc1ccc(OC)cc1)C(=O)N1CC(Nc2nc(NCCc3sc(N)nc3C)nc(NCCn3cnc4ccccc43)n2)C1 |

The next lines start with the compound.

| Compound | EC50 | outcome |
| --- | --- | --- |
| CCC(C)(C)C(=O)C(=O)N1CCCC[C@H]1C(=O)O[C@H](CCc1ccccc1)C(=O)N1[C@@H]2CC[C@H]1CC(Nc1nc(NCCc3sc(N)nc3C)nc(N3CCn4ncnc4C3)n1)C2 (stereo not given in full) | 17.1 µM | – |
| CCC(C)(C)C(=O)C(=O)N1CCCC[C@H]1C(=O)N[C@H](CCc1ccc(OC)cc1)C(=O)N1[C@@H]2CC[C@H]1CC(Nc1nc(NCCc3ccccc3)nc(N3CCn4ncnc4C3)n1)C2 (stereo not given in full) | 36 µM | – |
| CCC(C)(C)C(=O)C(=O)N1CCCC[C@H]1C(=O)N[C@H](CCc1ccc(OC)cc1)C(=O)N1[C@@H]2CC[C@H]1CC(NC(C)=O)C2 (stereo not given in full) | 28.9 µM | – |
| CC(=O)N1[C@@H]2CC[C@H]1CC(Nc1nc(NCCc3sc(N)nc3C)nc(N3CCn4ncnc4C3)n1)C2 (stereo not given in full) | – | inactive |
